Assay: Microsomal stability
Assay type: in vitro ADME
Conditions: mouse liver microsomes; 1 μM compound
Protocol: Compounds were incubated at 37 °C at a concentration of 1 μM with CD1 mouse liver microsomes (GIBCO, Thermo Fisher Scientific) in a suspension of 50 mM potassium phosphate buffer (pH 7.4) with a final protein concentration of 0.5 mg/mL. The reaction was started by the addition of excess NADPH and then quenched at several time points starting from time 0, then at 3, 6, 9, 15, and 30 min addition of acetonitrile to an aliquot of the sample. An internal standard was added to each sample before centrifugation to remove any precipitates before monitoring loss of parent compound by HPLC analysis using Shimadzu LC-20A (Shimadzu, UK). Prism (Graphpad, USA) was used to fit an exponential decay for substrate depletion and subsequently rate constant (k) from the peak area of the parent compound to the internal standard at each time point.

CCN(CC)Cc1ccc(OC)c(-c2cc3c(-c4ccc(C(=O)O)c(C(C)C)c4)ccnc3[nH]2)c1 [analogue 1, 4-(2-(5-((Diethylamino)methyl)-2-methoxyphenyl)-1H-pyrrolo[2,3-b]pyridin-4-yl)-2-isopropylbenzoic Acid]
clint (in vitro intrinsic clearance): 1.12 mL/min/g liver

From publication PMC7497403, “Development of Potent PfCLK3 Inhibitors Based on TCMDC-135051 as a New Class of Antimalarials” (Journal of Medicinal Chemistry, 2020)
